Key:
HepG2 = assay: In vitro anticancer screening, MTT cell viability; format: cell-based; conditions: Homo sapiens; for inhibition at 100 µM: HepG2, 100 μM dose, read-out: Growth inhibition (%); for IC50: HepG2, MTT, 48 h
Experimental: (§1) Anticancer activity screening was adopted against five cancer cell lines, viz., HepG2, PC-3, HCT116, MCF-7, A549, and doxorubicin was used as a reference standard at 100 micromole.
(§2) Cell viability was assessed by the mitochondrial dependent reduction of yellow MTT (3-(4,5-dimethylthiazol-2-yl)-2,5-diphenyl tetrazolium bromide) to purple formazan. All the following procedures were done in a sterile area using a laminar air flow cabinet of class II biosafety (Baker, SG403INT, Sanford, Me., USA). Cells were suspended in DMEM medium for PC-3, and RPMI1640 in case of A-549, MCF-7, HCT-116 and HePG-2. The media are supplemented with 1% antibiotic antimycotic mixture (10,000 U ml^−1 Potassium Penicillin, 10,000 μg ml^−1 Streptomycin Sulfate and 25 μg ml^−1 Amphotericin B), 1% L-glutamine and 10% fetal bovine serum (complete growth medium) and kept at […] under 5% CO2. Cells were batch cultured for 10 days, then seeded at a concentration of 10×10^3 cells/well in fresh complete growth medium in 96-well Microtiter plastic plates at 37° C. for 24 h under 5% CO2 and a humid atmosphere using a water jacketed carbon dioxide incubator (Sheldon, TC2323, Cornelius, Oreg., USA). Media was aspirated, fresh medium (without serum) was added, and cells were incubated either alone (negative control) or with serial dilutions of each sample. After 48 h of incubation, the medium was aspirated, 40 μl MTT salt (2.5 μg ml^−1) was added to each well and incubated for a further four hours at 37° C. under 5% CO2. To stop the reaction and dissolving the formed crystals, 200 μl of 10% sodium dodecyl sulfate (SDS) in deionized water was added to each well and incubated overnight at 37° C. The absorbance was then measured using a microplate multi-well reader ELISA reader (Bio-Rad Laboratories Inc., model 3350, Hercules, Calif., USA) at 595 nm and a reference wavelength of 620 nm. A statistical significance was tested between samples and negative control (cells with vehicle) using independent t-test by SPSS 11 program. DMSO is the vehicle used for dissolution of plant extracts, and its final concentration in the cells was less than 0.2%. The percentage of change in viability was calculated according to the formula: (average absorbance of extract/average absorbance of negative control)−1)×100. A probit analysis was carried for IC50 determination using SPSS 11 program.

HCT116 = assay: In vitro anticancer screening, MTT cell viability; format: cell-based; conditions: Homo sapiens, HCT-116; for inhibition at 100 µM: HCT116, 100 μM dose, read-out: Growth inhibition (%); for IC50: HCT116, MTT, 48 h
Experimental: as §1, §2

MCF7 = assay: In vitro anticancer screening, MTT cell viability; format: cell-based; conditions: Homo sapiens; for inhibition at 100 µM: MCF7, 100 μM dose, read-out: Growth inhibition (%)
Experimental: as §1, §2

A549 = assay: In vitro anticancer screening, MTT cell viability; format: cell-based; conditions: Homo sapiens; for inhibition at 100 µM: A549, 100 μM dose, read-out: Growth inhibition (%)
Experimental: as §1, §2

PC3 = assay: In vitro anticancer screening, MTT cell viability; format: cell-based; conditions: Homo sapiens, PC-3; for inhibition at 100 µM: PC3, 100 μM dose, read-out: Growth inhibition (%); for IC50: PC3, MTT, 48 h
Experimental: as §1, §2

EGFR = EGFR (Homo sapiens, UniProt P00533); assay: Kinase screening (radiometric or ADP-Glo assay); format: biochemical
Chain of EGFR (P00533 25-1210, species assumed): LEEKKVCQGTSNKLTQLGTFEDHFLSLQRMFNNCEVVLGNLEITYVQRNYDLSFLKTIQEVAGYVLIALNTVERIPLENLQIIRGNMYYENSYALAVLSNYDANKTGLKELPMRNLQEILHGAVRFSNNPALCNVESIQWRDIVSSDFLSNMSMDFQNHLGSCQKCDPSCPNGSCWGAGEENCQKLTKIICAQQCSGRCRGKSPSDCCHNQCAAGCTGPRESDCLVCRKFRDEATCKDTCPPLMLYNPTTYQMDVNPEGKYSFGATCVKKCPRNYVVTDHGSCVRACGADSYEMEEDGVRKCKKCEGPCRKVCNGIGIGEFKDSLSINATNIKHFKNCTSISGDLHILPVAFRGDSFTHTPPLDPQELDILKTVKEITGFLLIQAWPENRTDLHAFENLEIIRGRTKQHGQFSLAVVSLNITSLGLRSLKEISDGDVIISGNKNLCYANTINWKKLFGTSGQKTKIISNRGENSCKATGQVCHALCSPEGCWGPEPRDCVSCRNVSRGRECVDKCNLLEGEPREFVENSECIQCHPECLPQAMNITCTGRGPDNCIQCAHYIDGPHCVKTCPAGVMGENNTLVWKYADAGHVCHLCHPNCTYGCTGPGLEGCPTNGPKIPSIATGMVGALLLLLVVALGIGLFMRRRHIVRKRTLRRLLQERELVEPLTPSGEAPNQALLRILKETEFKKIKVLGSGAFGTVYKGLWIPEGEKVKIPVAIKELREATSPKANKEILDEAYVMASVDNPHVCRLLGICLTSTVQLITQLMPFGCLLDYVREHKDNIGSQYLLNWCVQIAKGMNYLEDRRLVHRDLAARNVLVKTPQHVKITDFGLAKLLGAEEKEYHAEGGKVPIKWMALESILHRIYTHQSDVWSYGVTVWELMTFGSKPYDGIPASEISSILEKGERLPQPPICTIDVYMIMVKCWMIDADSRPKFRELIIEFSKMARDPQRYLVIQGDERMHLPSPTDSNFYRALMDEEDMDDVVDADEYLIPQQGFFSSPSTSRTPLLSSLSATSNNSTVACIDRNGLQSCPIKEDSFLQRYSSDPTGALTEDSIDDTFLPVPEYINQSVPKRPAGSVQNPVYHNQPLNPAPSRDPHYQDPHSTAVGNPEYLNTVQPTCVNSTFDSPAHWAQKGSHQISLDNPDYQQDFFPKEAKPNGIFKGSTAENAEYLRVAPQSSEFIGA
Experimental: (§3) The in vitro enzyme inhibition determination for the pyrido[2,3-d]pyrimidine derivatives was performed against a range of five protein kinases [PDGFR beta, EGFR, CDK4/Cyclin D1, PI3K (p100b/p85a), and PI3K (p100a/p85a)], including two concentrations (50 & 100 μM) in single measurements using the radiometric or ADP-Glo assay method. The intra-assay variability was determined to be less than 10%. Inhibition of target activity by the compound gives negative (−) values, while activation of target activity gives positive (+) value.
(§4) The pyrido[2,3-d]pyrimidine derivative 5 was supplied by Kinexus as a powder, and a stock solution was made in DMSO. The stock solution was then diluted to form an assay stock solution, and this was used to profile against the protein kinases and lipid protein kinases [PDGFR beta, EGFR, CDK4/Cyclin D1, PI3K (p100b/p85a), and PI3K (p100a/p85a)]. The assay condition for the protein kinase targets was optimized to yield acceptable enzymatic activity. In addition, the assays were optimized to give high signal-to-noise ratio.
(§5) For Protein Kinase (PK) Assays, a radioisotope assay format was used for profiling evaluation of PK targets and all assays were carried out in a designated radioactive working area. PK assays (in singlicate) were performed at ambient temperature for 30 min in a final volume of 25 μl according to the following assay reaction recipe: Component 1:5 μl of diluted active PK target (˜10-50 nM final concentration); Component 2:5 μl of stock solution of substrate (1-5 μg of peptide substrate); Component 3:5 μl of kinase assay buffer; Component 4:5 μl of compound (50 μM) or 10% DMSO; and Component 5:5 μl of ^33P-ATP (250 μM stock solution, 0.8 μCi).
(§6) The assay was initiated by the addition of ^33P-ATP, and the reaction mixture incubated at ambient temperature for 30 minutes. After the incubation period, the assay was terminated by spotting 10 μl of the reaction mixture onto Multiscreen phosphocellulose P81 plate. The Multiscreen phosphocellulose P81 plate was washed 3 times for approximately 15 min each in a 1% phosphoric acid solution. The radioactivity on the P81 plate was counted in the presence of scintillation fluid in a Trilux scintillation counter. Blank control was set up that included all the assay components except the addition of the appropriate substrate (replaced with equal volume of assay dilution buffer). The corrected activity for PK target was determined by removing the blank control value.

CDK4/CyclinD1 = CDK4/CyclinD1 (Homo sapiens, UniProt P11802); assay: Kinase screening (radiometric or ADP-Glo assay); format: biochemical
Chain of CDK4/CyclinD1 (P11802 whole entry, species assumed): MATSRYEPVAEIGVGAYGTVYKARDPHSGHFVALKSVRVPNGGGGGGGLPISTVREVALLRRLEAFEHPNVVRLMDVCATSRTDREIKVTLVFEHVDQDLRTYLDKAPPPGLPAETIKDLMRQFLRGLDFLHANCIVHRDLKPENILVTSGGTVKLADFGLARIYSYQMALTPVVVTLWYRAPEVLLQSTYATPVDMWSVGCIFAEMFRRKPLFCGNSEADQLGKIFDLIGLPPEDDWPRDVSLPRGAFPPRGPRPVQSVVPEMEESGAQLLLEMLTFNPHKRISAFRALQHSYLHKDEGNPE
Chain of CDK4/CyclinD1 (P24385 whole entry partner, species assumed): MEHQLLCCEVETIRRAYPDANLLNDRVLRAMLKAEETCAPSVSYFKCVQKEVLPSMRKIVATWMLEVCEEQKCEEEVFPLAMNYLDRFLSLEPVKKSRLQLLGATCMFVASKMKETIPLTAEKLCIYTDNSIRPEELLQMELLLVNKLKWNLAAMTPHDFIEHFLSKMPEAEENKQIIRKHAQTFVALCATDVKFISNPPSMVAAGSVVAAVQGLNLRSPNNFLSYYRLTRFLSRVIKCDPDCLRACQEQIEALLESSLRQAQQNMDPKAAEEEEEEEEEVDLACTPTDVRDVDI
Experimental: as §3, §4, §5, §6

PI3K (p110a/p85a) = PI3K (p110a/p85a) (Homo sapiens, UniProt P42336); assay: Kinase screening (radiometric or ADP-Glo assay); format: biochemical; conditions: negative values: inhibition, positive values: activation of target activity
Chain of PI3K (p110a/p85a) (P42336 whole entry): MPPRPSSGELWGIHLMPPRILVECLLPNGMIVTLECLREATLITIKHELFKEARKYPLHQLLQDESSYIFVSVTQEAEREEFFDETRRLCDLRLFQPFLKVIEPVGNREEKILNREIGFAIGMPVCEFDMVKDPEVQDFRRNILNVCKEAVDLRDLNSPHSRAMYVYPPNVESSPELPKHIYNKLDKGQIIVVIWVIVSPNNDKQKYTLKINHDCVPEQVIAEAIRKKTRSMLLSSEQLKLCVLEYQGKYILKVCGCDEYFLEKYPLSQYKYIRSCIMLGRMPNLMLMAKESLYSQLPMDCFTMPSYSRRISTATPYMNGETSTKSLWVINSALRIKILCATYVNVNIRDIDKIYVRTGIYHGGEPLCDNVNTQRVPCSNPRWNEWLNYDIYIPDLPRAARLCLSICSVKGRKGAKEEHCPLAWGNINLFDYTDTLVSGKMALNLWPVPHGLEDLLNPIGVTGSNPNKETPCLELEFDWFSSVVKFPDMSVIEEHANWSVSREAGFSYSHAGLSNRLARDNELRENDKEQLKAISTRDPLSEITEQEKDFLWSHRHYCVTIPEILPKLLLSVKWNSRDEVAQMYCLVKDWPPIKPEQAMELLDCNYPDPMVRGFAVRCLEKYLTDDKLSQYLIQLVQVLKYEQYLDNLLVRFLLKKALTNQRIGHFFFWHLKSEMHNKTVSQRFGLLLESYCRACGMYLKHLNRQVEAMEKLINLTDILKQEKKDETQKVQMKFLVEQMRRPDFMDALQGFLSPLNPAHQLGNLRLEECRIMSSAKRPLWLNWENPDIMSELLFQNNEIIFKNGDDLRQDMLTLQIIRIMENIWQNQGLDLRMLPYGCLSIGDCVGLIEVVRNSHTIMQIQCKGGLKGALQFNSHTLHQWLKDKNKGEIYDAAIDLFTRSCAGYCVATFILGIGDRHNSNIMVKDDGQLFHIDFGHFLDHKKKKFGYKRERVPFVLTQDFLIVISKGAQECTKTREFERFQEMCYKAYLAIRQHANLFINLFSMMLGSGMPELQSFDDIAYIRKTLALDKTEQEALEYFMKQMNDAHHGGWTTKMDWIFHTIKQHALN
Chain of PI3K (p110a/p85a) (P27986 whole entry partner): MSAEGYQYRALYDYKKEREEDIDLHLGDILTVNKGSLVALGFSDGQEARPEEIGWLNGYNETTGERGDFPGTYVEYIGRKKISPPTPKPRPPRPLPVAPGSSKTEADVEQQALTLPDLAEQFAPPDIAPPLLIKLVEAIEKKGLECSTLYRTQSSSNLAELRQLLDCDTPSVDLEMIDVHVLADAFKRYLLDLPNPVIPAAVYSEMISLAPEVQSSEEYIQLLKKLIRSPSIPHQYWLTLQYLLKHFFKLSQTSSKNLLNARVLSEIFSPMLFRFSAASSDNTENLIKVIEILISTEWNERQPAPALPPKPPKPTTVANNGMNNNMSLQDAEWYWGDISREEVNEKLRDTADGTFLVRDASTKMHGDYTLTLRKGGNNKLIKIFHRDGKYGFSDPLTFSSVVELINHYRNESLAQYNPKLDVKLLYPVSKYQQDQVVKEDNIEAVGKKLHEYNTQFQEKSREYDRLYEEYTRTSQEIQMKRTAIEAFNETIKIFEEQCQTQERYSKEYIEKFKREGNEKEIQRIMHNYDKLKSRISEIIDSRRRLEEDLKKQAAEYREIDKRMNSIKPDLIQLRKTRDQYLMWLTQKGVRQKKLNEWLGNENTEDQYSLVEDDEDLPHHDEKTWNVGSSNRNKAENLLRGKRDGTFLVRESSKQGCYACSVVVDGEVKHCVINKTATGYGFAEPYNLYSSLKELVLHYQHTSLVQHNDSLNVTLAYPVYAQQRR
Experimental: as §3, §4, §5, §6

PDGFRβ = PDGFRβ (Homo sapiens, UniProt P09619); assay: Kinase screening (radiometric or ADP-Glo assay); format: biochemical
Chain of PDGFRβ (P09619 33-1106, species assumed): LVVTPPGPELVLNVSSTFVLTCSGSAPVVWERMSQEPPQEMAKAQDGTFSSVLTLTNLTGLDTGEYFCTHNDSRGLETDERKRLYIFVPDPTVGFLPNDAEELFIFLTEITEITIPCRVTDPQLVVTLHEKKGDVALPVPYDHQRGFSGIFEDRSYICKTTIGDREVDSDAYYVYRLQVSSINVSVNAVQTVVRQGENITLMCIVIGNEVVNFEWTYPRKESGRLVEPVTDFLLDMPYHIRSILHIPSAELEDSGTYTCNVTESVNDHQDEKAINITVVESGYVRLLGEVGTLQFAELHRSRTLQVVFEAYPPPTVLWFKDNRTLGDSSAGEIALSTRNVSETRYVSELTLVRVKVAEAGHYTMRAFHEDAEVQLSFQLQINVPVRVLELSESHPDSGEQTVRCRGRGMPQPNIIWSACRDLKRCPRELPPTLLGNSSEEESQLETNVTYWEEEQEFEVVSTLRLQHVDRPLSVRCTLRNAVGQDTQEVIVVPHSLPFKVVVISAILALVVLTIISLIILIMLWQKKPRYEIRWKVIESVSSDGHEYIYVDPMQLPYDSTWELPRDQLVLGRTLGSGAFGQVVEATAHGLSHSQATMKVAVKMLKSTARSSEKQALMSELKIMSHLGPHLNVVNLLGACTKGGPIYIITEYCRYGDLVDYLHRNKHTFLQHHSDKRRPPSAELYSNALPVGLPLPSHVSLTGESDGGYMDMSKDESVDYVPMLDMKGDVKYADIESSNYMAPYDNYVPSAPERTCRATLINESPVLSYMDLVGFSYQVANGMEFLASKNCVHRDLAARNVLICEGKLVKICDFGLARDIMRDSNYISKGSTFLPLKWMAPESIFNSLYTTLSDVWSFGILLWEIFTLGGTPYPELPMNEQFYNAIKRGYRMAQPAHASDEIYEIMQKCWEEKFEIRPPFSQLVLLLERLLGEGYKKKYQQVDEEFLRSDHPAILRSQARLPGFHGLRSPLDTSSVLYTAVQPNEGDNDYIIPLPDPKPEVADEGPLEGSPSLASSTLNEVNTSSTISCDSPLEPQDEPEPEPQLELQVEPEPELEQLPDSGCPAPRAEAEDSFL
Experimental: as §3, §4, §5, §6

IC50 (HepG2) [µM] | IC50 (HCT116) [µM] | IC50 (MCF7; MCF7, MTT, 48 h) [µM] | IC50 (A549; A549, MTT, 48 h) [µM] | IC50 (PC3) [µM] | inhibition at 50 µM (EGFR; 50 μM) [%] | inhibition at 100 µM (EGFR; 100 μM) [%] | inhibition at 50 µM (CDK4/CyclinD1; 50 μM) [%] | inhibition at 100 µM (CDK4/CyclinD1; 100 μM) [%] | inhibition at 50 µM (PI3K (p110a/p85a); 50 μM) [%] | inhibition at 100 µM (PI3K (p110a/p85a); 100 μM) [%] | inhibition at 50 µM (PDGFRβ; 50 μM) [%] | inhibition at 100 µM (PDGFRβ; 100 μM) [%] | melting point [°C] | Structure (SMILES) | inhibition at 100 µM (HepG2) [%] | inhibition at 100 µM (HCT116) [%] | inhibition at 100 µM (MCF7) [%] | inhibition at 100 µM (A549) [%] | inhibition at 100 µM (PC3) [%]
0.3 | 6.9 ± 0.5 | 9.1 ± 2.1 | 3.21 ± 0.4 | 5.3 ± 0.09 | 79 | 85 | 31 | 73 | -178 | -185 | 83 | 90 | > 300 | COc1cccc(-c2cc(-c3cccnc3)nc3nc(-n4[nH]c(C)cc4=O)[nH]c(=O)c23)c1 [Target] | 100 | 99 | 87 | 99 | 100
0.6 | 12.8 ± 1 | – | – | 6.8 ± 1.2 | – | – | – | – | – | – | – | – | – | COc1cccc2c1C(=O)c1c(O)c3c(c(O)c1C2=O)C[C@@](O)(C(=O)CO)C[C@@H]3O[C@H]1C[C@H](N)[C@H](O)[C@H](C)O1 [doxorubicin, reference compound] | 100 | 100 | 91 | 100 | 100

— patent publication US10100054B1, “Pyrido[2,3-d]pyrimidines as anticancer agents” (KING SAUD UNIVERSITY, priority 2018, dated 2018)
